Measurements taken from ChEMBL document CHEMBL1201862, “PubChem BioAssay data set” (2004).
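Where inhibition never reached the appropriate level, the endpoint shown equals the highest concentration tested. Otherwise, values were interpolated linearly from a five-concentration, 48-hour dose response in 96-well plates. GI50 is the concentration that inhibits growth by half.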 Active and inactive are the calls of the source. No stated cut-off is given here; in the data, active = GI50 up to about 1.1 µM and inactive = higher.

Legend:
Assay in all cases: NCI tumour cell line growth inhibition, 48 h
A498 = test system: A498
CAKI-1 = test system: CAKI-1
CCRF-CEM = test system: CCRF-CEM
DU-145 = test system: DU-145
HL-60 = test system: HL-60
HOP-62 = test system: HOP-62
MDA-MB-231 = test system: MDA-MB-231
NCI-H226 = test system: NCI-H226
OVCAR-3 = test system: OVCAR-3
OVCAR-5 = test system: OVCAR-5
SF-268 = test system: SF-268
SF-295 = test system: SF-295
SF-539 = test system: SF-539
SK-MEL-28 = test system: SK-MEL-28
T47D = test system: T47D
TK-10 = test system: TK-10
UACC-62 = test system: UACC-62
UO-31 = test system: UO-31
LOX IMVI = test system: LOX IMVI
RPMI-8226 = test system: RPMI-8226

| SMILES | GI50 (A498) | GI50 (CAKI-1) | GI50 (CCRF-CEM) | GI50 (DU-145) | GI50 (HL-60) | GI50 (HOP-62) | GI50 (MDA-MB-231) | GI50 (NCI-H226) | GI50 (OVCAR-3) | GI50 (OVCAR-5) | GI50 (SF-268) | GI50 (SF-295) | GI50 (SF-539) | GI50 (SK-MEL-28) | GI50 (T47D) | GI50 (TK-10) | GI50 (UACC-62) | GI50 (UO-31) | GI50 (LOX IMVI) | GI50 (RPMI-8226) |
| --- | --- | --- | --- | --- | --- | --- | --- | --- | --- | --- | --- | --- | --- | --- | --- | --- | --- | --- | --- | --- |
| Cc1[nH]c2ncn3[nH]c(=S)nc3c2c1Cc1ccccc1 | > 100 µM (inactive) | > 100 µM (inactive) | 76.4 µM (inactive) | > 100 µM (inactive) | > 100 µM (inactive) | > 100 µM (inactive) | > 100 µM (inactive) | > 100 µM (inactive) | > 100 µM (inactive) | > 100 µM (inactive) | > 100 µM (inactive) | > 100 µM (inactive) | > 100 µM (inactive) | > 100 µM (inactive) | 28.8 µM (inactive) | > 100 µM (inactive) | > 100 µM (inactive) | > 100 µM (inactive) | – | – |
| N#[N+]c1cc2c(cc1Br)-c1ccccc1C2 | > 100 µM (inactive) | 97.5 µM (inactive) | 0.586 µM (active) | > 100 µM (inactive) | 51.4 µM (inactive) | > 100 µM (inactive) | > 100 µM (inactive) | 51.6 µM (inactive) | 46.9 µM (inactive) | > 100 µM (inactive) | > 100 µM (inactive) | > 100 µM (inactive) | > 100 µM (inactive) | > 100 µM (inactive) | > 100 µM (inactive) | 47.1 µM (inactive) | 44.9 µM (inactive) | > 100 µM (inactive) | 91.6 µM (inactive) | – |
| c1ccc2c(Nc3ncco3)cccc2c1 | > 10 µM (inactive) | > 10 µM (inactive) | > 10 µM (inactive) | > 10 µM (inactive) | – | > 10 µM (inactive) | > 10 µM (inactive) | > 10 µM (inactive) | > 10 µM (inactive) | > 10 µM (inactive) | > 10 µM (inactive) | > 10 µM (inactive) | > 10 µM (inactive) | > 10 µM (inactive) | > 10 µM (inactive) | > 10 µM (inactive) | > 10 µM (inactive) | > 10 µM (inactive) | > 10 µM (inactive) | – |
| O=C(CSc1nnc(-c2ccccn2)s1)N/N=C/c1ccc([N+](=O)[O-])cc1 | 31 µM (inactive) | > 100 µM (inactive) | > 100 µM (inactive) | 11.4 µM (inactive) | > 100 µM (inactive) | 35.6 µM (inactive) | 15.9 µM (inactive) | > 100 µM (inactive) | > 100 µM (inactive) | > 100 µM (inactive) | 22.1 µM (inactive) | 29.4 µM (inactive) | 59.2 µM (inactive) | > 100 µM (inactive) | 37.1 µM (inactive) | 21.7 µM (inactive) | 76.4 µM (inactive) | < 0.01 µM (active) | > 100 µM (inactive) | – |
| Brc1ccc(-c2cn3ccncc3n2)cc1 | > 100 µM (inactive) | > 100 µM (inactive) | > 100 µM (inactive) | > 100 µM (inactive) | – | > 100 µM (inactive) | > 100 µM (inactive) | > 100 µM (inactive) | > 100 µM (inactive) | > 100 µM (inactive) | > 100 µM (inactive) | > 100 µM (inactive) | > 100 µM (inactive) | > 100 µM (inactive) | > 100 µM (inactive) | > 100 µM (inactive) | > 100 µM (inactive) | > 100 µM (inactive) | > 100 µM (inactive) | > 100 µM (inactive) |
| O=C1CC(C(OCc2ccccc2)C(OCc2ccccc2)C(COCc2ccccc2)OCc2ccccc2)CC(=O)N1 (stereo not given) | > 100 µM (inactive) | – | – | > 75 µM (inactive) | > 100 µM (inactive) | – | 71.4 µM (inactive) | > 100 µM (inactive) | – | > 75 µM (inactive) | > 75 µM (inactive) | > 75 µM (inactive) | > 100 µM (inactive) | > 75 µM (inactive) | 26.1 µM (inactive) | > 75 µM (inactive) | – | – | > 75 µM (inactive) | > 75 µM (inactive) |
| CCC/C(C)=N/NC(=S)SC.CCC/C(C)=N/NC(=S)SC.[Zn+2] | 22.2 µM (inactive) | 13.7 µM (inactive) | 2.16 µM (inactive) | 12 µM (inactive) | – | 9.75 µM (inactive) | 1.7 µM (inactive) | 12.6 µM (inactive) | 10.2 µM (inactive) | 10.3 µM (inactive) | 14.1 µM (inactive) | 3.15 µM (inactive) | 13.7 µM (inactive) | 16 µM (inactive) | 11.5 µM (inactive) | 11.6 µM (inactive) | 10.9 µM (inactive) | 11 µM (inactive) | 1.48 µM (inactive) | 1.98 µM (inactive) |
| CC(C)CC1c2[nH]c3ccccc3c2C[C@H]2C(=O)NC(Cc3c[nH]c4ccccc34)C(=O)N12 (stereo not given in full) | 16.8 µM (inactive) | 23.7 µM (inactive) | – | 20.3 µM (inactive) | 11.8 µM (inactive) | 20.6 µM (inactive) | 20.3 µM (inactive) | 26.9 µM (inactive) | 7.74 µM (inactive) | 24.7 µM (inactive) | 18 µM (inactive) | 20.4 µM (inactive) | – | 17.3 µM (inactive) | 6.61 µM (inactive) | 4.93 µM (inactive) | 16 µM (inactive) | 14.3 µM (inactive) | 14.2 µM (inactive) | 13.9 µM (inactive) |
| CNC(C#N)c1ccc(OC)cc1 (stereo not given) | > 100 µM (inactive) | > 100 µM (inactive) | 53.3 µM (inactive) | > 100 µM (inactive) | 28.6 µM (inactive) | – | > 100 µM (inactive) | > 100 µM (inactive) | 61 µM (inactive) | > 100 µM (inactive) | > 100 µM (inactive) | > 100 µM (inactive) | > 100 µM (inactive) | > 100 µM (inactive) | 61.5 µM (inactive) | > 100 µM (inactive) | > 100 µM (inactive) | > 100 µM (inactive) | > 100 µM (inactive) | – |
| NC(=O)C(=CNC(=S)Nc1ccc(S(=O)(=O)Nc2ccccn2)cc1)C(N)=O | > 100 µM (inactive) | > 100 µM (inactive) | 30 µM (inactive) | > 100 µM (inactive) | – | > 100 µM (inactive) | > 100 µM (inactive) | > 100 µM (inactive) | > 100 µM (inactive) | > 100 µM (inactive) | > 100 µM (inactive) | > 100 µM (inactive) | > 100 µM (inactive) | > 100 µM (inactive) | > 100 µM (inactive) | > 100 µM (inactive) | > 100 µM (inactive) | > 100 µM (inactive) | > 93.1 µM (inactive) | > 100 µM (inactive) |
| C/C(=N\NC(=S)N1CCC(N2CCCCC2)CC1)c1ccccn1 | 2.37 µM (inactive) | 2.07 µM (inactive) | 0.661 µM (active) | 3.72 µM (inactive) | 0.796 µM (active) | – | 1.9 µM (inactive) | – | 2.4 µM (inactive) | 4.11 µM (inactive) | 3.68 µM (inactive) | 2.28 µM (inactive) | 3.11 µM (inactive) | 4.12 µM (inactive) | 1.39 µM (inactive) | 2.38 µM (inactive) | 3.33 µM (inactive) | 1.9 µM (inactive) | 2.82 µM (inactive) | 2.2 µM (inactive) |
| CCOC(=O)Nc1ccc(S(=O)(=O)Nc2ccc(Br)cc2)cc1 | 13.6 µM (inactive) | 35.8 µM (inactive) | 46.8 µM (inactive) | 65.5 µM (inactive) | 25.6 µM (inactive) | 33.5 µM (inactive) | 29.7 µM (inactive) | – | 36.3 µM (inactive) | 58.1 µM (inactive) | 28.2 µM (inactive) | 30.9 µM (inactive) | 17.2 µM (inactive) | 39.8 µM (inactive) | 31.5 µM (inactive) | 43.1 µM (inactive) | 22.4 µM (inactive) | 34.8 µM (inactive) | 26.4 µM (inactive) | 25.1 µM (inactive) |
| CC1(C=O)CCC23COC4(CCC5C6(C)CCC(OC7OCC(OC8OC(CO)C(O)C(OC9OC(CO)C(O)C(O)C9O)C8OC8OCC(O)C(O)C8O)C(O)C7OC7OC(CO)C(O)C(O)C7O)C(C)(C)C6CCC5(C)C4(C)CC2O)C3C1 (stereo not given) | 0.552 µM (active) | 1.12 µM (active) | 0.221 µM (active) | 1.46 µM (inactive) | 0.356 µM (active) | 2.13 µM (inactive) | 0.32 µM (active) | 1.8 µM (inactive) | 1.47 µM (inactive) | 1.29 µM (inactive) | 1.14 µM (inactive) | 0.908 µM (active) | 1.3 µM (inactive) | – | 1.61 µM (inactive) | 1.89 µM (inactive) | 1.71 µM (inactive) | 1.48 µM (inactive) | 1.24 µM (inactive) | 1.71 µM (inactive) |
| CCCCCCCCCCCCCCCCCCNc1nc(=O)n(C2CC(O)C(COP(=O)(O)O)O2)cc1F (stereo not given) | 6.27 µM (inactive) | 15 µM (inactive) | 38 µM (inactive) | > 57.4 µM (inactive) | – | 81.7 µM (inactive) | > 100 µM (inactive) | 38.9 µM (inactive) | > 100 µM (inactive) | > 100 µM (inactive) | 49.4 µM (inactive) | > 80.7 µM (inactive) | 15 µM (inactive) | > 100 µM (inactive) | 42.9 µM (inactive) | > 100 µM (inactive) | > 78.2 µM (inactive) | 31.7 µM (inactive) | 58.9 µM (inactive) | > 63.2 µM (inactive) |
| CCSc1n/c(=C\c2ccco2)c2nnnn12 | > 100 µM (inactive) | > 100 µM (inactive) | > 100 µM (inactive) | > 100 µM (inactive) | – | > 100 µM (inactive) | > 100 µM (inactive) | > 100 µM (inactive) | > 100 µM (inactive) | > 100 µM (inactive) | > 100 µM (inactive) | > 100 µM (inactive) | > 100 µM (inactive) | > 100 µM (inactive) | > 100 µM (inactive) | > 100 µM (inactive) | > 100 µM (inactive) | > 100 µM (inactive) | > 100 µM (inactive) | > 100 µM (inactive) |
